Columns and labels:
[1] = target: T1, 20S Human Erythrocyte Proteasome (HEP) (Homo sapiens, UniProt P20618+P28074); experiment: Chymotrypsin-like activity of 20S Human Erythrocyte Proteasome (HEP), IC50 determination; assay type: biochemical; details: assay of Example C, inhibition of HEP
T1 construct: 20S Human Erythrocyte Proteasome (HEP), purchased from Immatics Biotechnologies Inc; purchased Immatics Biotechnologies Inc., Tübingen, Germany; host or cells: human erythrocytes (natural source)
How it was run: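 20S proteasome at 0.2 μg/mL (about 0.6 nM catalytic sites) in 20 mM Tris with 0.04% SDS, preincubated 15 min at 37° C with inhibitor before Suc-LLVY-AMC (100 μM final). AMC fluorescence read in the linear range; triplicates, IC50 from concentration series.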

[2] = target: T2, proteasome in Molt-4 cells (human leukemia) (Homo sapiens, UniProt P20618+P28074); assay type: cell-based; details: assay of Example E, inhibition of MOLT4; read-out: MOLT4 (EC50)
T2 sequence (P28074 60-263): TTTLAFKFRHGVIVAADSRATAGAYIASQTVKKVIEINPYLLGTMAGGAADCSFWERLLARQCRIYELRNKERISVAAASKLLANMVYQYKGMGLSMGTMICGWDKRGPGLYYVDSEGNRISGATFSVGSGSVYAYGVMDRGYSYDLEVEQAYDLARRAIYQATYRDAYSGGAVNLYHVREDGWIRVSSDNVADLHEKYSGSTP
T2 sequence (P20618 29-241): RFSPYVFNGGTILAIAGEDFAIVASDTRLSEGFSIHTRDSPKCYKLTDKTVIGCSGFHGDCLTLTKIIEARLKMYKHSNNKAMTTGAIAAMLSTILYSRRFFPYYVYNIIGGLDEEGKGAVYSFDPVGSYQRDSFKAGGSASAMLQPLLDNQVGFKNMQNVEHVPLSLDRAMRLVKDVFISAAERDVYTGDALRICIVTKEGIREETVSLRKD
How it was run: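 Intact Molt-4 cells (6×10^6 cells/mL) in HEPES-buffered saline were preincubated with inhibitor 15 min at 37 °C, then given cell-permeable MeOSuc-FLF-AFC at 25 μM final.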

Row | SMILES | IC50 [1] [nM] | EC50 [2] [nM]
1 | CC(C)C[C@H](NC(=O)[C@H](CCCNC(=N)N[N+](=O)[O-])NC(=O)CCCCCCC(=O)c1ccccc1)B1O[C@@H]2C[C@@H]3C[C@@H](C3(C)C)[C@]2(C)O1 [D.3.125, 8-Oxo-8-phenyloctanamide,N-[(1S)-1-[[[(1R)-1-[(3aS,4S,6S,7aR)-hexahydro-3a,5,5-trimethyl-4,6-methano-l,3,2-benzodioxaborol-2-yl]-3-methylbutyl]amino]carbonyl]-4-[[imino(nitroamino)methyl]amino]butyl]] | < 10 | < 200
2 | COc1ccc(C(=O)N[C@@H](CCCNC(=N)N[N+](=O)[O-])C(=O)N[C@@H](CC(C)C)B2O[C@@H]3C[C@@H]4C[C@@H](C4(C)C)[C@]3(C)O2)cc1F [D.3.94, 3-Fluoro-4-methoxybenzamide,N-[(1S)-1-[[[(1R)-1-[(3aS,4S,6S,7aR)-hexahydro-3a,5,5-trimethyl-4,6-methano-1,3,2-benzodioxaborol-2-yl]-3-methylbutyl]amino]carbonyl]-4-[[imino(nitroamino)methyl]amino]butyl]] | < 10 | < 200
3 | CCCCCCCCCC(=O)N[C@H](C(=O)N[C@@H](CC(C)C)B(O)O)[C@@H](C)O [E.1.17, Boronic acid, [(1R)-1-[[(2S,3R)-3-hydroxy-2-[(decanoyl)amino]-1-oxobutyl]amino]-3-methylbutyl]] | < 10 | < 200
4 | CCCCOc1ccc(S(=O)(=O)N[C@@H](CCCNC(=N)N[N+](=O)[O-])C(=O)N[C@@H](CC(C)C)B2O[C@@H]3C[C@@H]4C[C@@H](C4(C)C)[C@]3(C)O2)cc1 [D.4.6, 4-Butoxyenzenesulfonamide, N-[(1S)-1-[[[(1R)-1-[(3aS,4S,6S,7aR)-hexahydro-3a,5,5-trimethyl-4,6-methano-1,3,2-benzodioxaborol-2-yl]-3-methylbutyl]amino]carbonyl]-4-[[imino(nitroamino)methyl]amino]butyl]] | < 100 | < 200
5 | CCCCCCCCCCCC(=O)N[C@@H](CCCNC(=N)N[N+](=O)[O-])C(=O)N[C@@H](CC(C)C)B(O)O [E.2.12, Boronic acid, [(1R)-1-[[(2S)-5-[[imino(nitroamino)methyl]amino]-2-[(dodecanoyl)amino]-1-oxopentyl]amino]-3-methylbutyl]] | < 10 | < 200
6 | CC(C)C[C@H](NC(=O)[C@H](CCCNC(=N)N[N+](=O)[O-])NC(=O)COc1ccc(C(C)C)cc1)B1O[C@@H]2C[C@@H]3C[C@@H](C3(C)C)[C@]2(C)O1 [D.3.54] | < 10 | < 200
7 | CC(C)C[C@H](NC(=O)[C@H](CCCNC(=N)N[N+](=O)[O-])NC(=O)CCc1cccs1)B1O[C@@H]2C[C@@H]3C[C@@H](C3(C)C)[C@]2(C)O1 [D.3.39, 3-Thiophen-2-yl-propanamide,N-[(1S)-1-[[[(1R)-1-[(3aS,4S,6S,7aR)-hexahydro-3a,5,5-trimethyl-4,6-methano-1,3,2-benzodioxaborol-2-yl]-3-methylbutyl]amino]carbonyl]-4-[[imino(nitroamino)methyl]amino]butyl]] | < 10 | < 200
8 | CCCCCc1ccc(S(=O)(=O)N[C@@H](CCCNC(=N)N[N+](=O)[O-])C(=O)N[C@@H](CC(C)C)B2O[C@@H]3C[C@@H]4C[C@@H](C4(C)C)[C@]3(C)O2)cc1 [D.4.8, 4-Pentyl-benzenesulfonamide, N-[(1S)-1-[[[(1R)-1-[(3aS,4S,6S,7aR)-hexahydro-3a,5,5-trimethyl-4,6-methano-1,3,2-benzodioxaborol-2-yl]-3-methylbutyl]amino]carbonyl]-4-[[imino(nitroamino)methyl]amino]butyl]] | < 100 | < 200
9 | CCCCCCCCCCCCC(=O)N[C@@H](CCCNC(=N)N[N+](=O)[O-])C(=O)N[C@@H](CC(C)C)B1O[C@@H]2C[C@@H]3C[C@@H](C3(C)C)[C@]2(C)O1 [D.3.119, Tridecanamide,N-[(1S)-1-[[[(1R)-1-[(3aS,4S,6S,7aR)-hexahydro-3a,5,5-trimethyl-4,6-methano-1,3,2-benzodioxaborol-2-yl]-3-methylbutyl]amino]carbonyl]-4-[[imino(nitroamino)methyl]amino]butyl]] | < 10 | < 200
10 | CC(C)C[C@H](NC(=O)[C@H](CCCNC(=N)N[N+](=O)[O-])NC(=O)c1ccoc1)B(O)O [E.2.28, Boronic acid, [(1R)-1-[[(2S)-5-[[imino(nitroamino)methyl]amino]-2-[(furan-3-carbonyl)amino]-1-oxopentyl]amino]-3-methylbutyl]] | < 10 | > 10000
11 | CC(=O)NCCCCCC(=O)N[C@@H](CCCNC(=N)N[N+](=O)[O-])C(=O)N[C@@H](CC(C)C)B(O)O [E.2.75, Boronic acid, [(1R)-1-[[(2S)-5-[[imino(nitroamino)methyl]amino]-2-[[6-(acetylamino)hexanoyl]amino]-1-oxopentyl]amino]-3-methylbutyl]] | < 10 | > 10000
12 | CCCCCCCCCC(=O)N[C@@H](CCCNC(=N)N[N+](=O)[O-])C(=O)N[C@@H](CC(C)C)B(O)O [E.2.1, Boronic acid, [(1R)-1-[[(2S)-5-[[imino(nitroamino)methyl]amino]-2-[(1-oxodecyl)amino]-1-oxopentyl]amino]-3-methylbutyl]] | < 10 | < 200
13 | CC(C)=CCC[C@@H](C)CC(=O)N[C@@H](CCCNC(=N)N[N+](=O)[O-])C(=O)N[C@@H](CC(C)C)B1O[C@@H]2C[C@@H]3C[C@@H](C3(C)C)[C@]2(C)O1 [D.3.75, (3R)-3,7-Dimethyl-oct-6-enoic acid amide,N-[(1S)-1-[[[(1R)-1-[(3aS,4S,6S,7aR)-hexahydro-3a,5,5-trimethyl-4,6-methano-1,3,2-benzodioxaborol-2-yl]-3-methylbutyl]amino]carbonyl]-4-[[imino(nitroamino)methyl]amino]butyl]] | < 10 | < 200
14 | CCCOc1cccc(C(=O)N[C@H](C(=O)N[C@@H](CC(C)C)B(O)O)[C@@H](C)O)c1 [E.3.10, Boronic acid, [(1R)-1-[[(2S,3R)-3-hydroxy-2-[(3-propoxy-benzoyl)amino]-1-oxobutyl]amino]-3-methylbutyl]] | < 10 | < 200
15 | CC(C)C[C@H](NC(=O)[C@H](CCCNC(=N)N[N+](=O)[O-])NC(=O)CCc1ccccc1)B1O[C@@H]2C[C@@H]3C[C@@H](C3(C)C)[C@]2(C)O1 [D.3.49, 3-Phenylpropanamide,N-[(1S)-1-[[[(1R)-1-[(3aS,4S,6S,7aR)-hexahydro-3a,5,5-trimethyl-4,6-methano-1,3,2-benzodioxaborol-2-yl]-3-methylbutyl]amino]carbonyl]-4-[[imino(nitroamino)methyl]amino]butyl]] | < 10 | 200 to 2000
16 | CCSCC(=O)N[C@@H](CCCNC(=N)N[N+](=O)[O-])C(=O)N[C@@H](CC(C)C)B(O)O [E.2.66, Boronic acid, [(1R)-1-[[(2S)-5-[[imino(nitroamino)methyl]amino]-2-[(2-ethylsulfanylacetyl)amino]-1-oxopentyl]amino]-3-methylbutyl]] | < 10 | > 10000
17 | CC(C)C[C@H](NC(=O)[C@H](CCCNC(=N)N[N+](=O)[O-])NC(=O)CCc1cccs1)B(O)O [E.1.12, Boronic acid, [(1R)-1-[[(2S)-5-[[imino(nitroamino)methyl]amino]-2-[(3-thiophen-2-yl-propanoyl)amino]-1-oxopentyl]amino]-3-methylbutyl]] | < 10 | > 10000
18 | CC(C)C[C@H](NC(=O)[C@H](CCCNC(=N)N[N+](=O)[O-])NC(=O)c1ccc(-n2cccc2)cc1)B1O[C@@H]2C[C@@H]3C[C@@H](C3(C)C)[C@]2(C)O1 [D.3.64, 4-Pyrrol-1-yl-benzamide,N-[(1S)-1-[[[(1R)-1-[(3aS,4S,6S,7aR)-hexahydro-3a,5,5-trimethyl-4,6-methano-1,3,2-benzodioxaborol-2-yl]-3-methylbutyl]amino]carbonyl]-4-[[imino(nitroamino)methyl]amino]butyl]] | < 10 | < 200
19 | Cc1ccc(C)c(CC(=O)N[C@@H](CCCNC(=N)N[N+](=O)[O-])C(=O)N[C@@H](CC(C)C)B(O)O)c1 [E.2.56, Boronic acid, [(1R)-1-[[(2S)-5-[[imino(nitroamino)methyl]amino]-2-[[2-(2,5-dimethylphenyl)acetyl]amino]-1-oxopentyl]amino]-3-methylbutyl]] | < 10 | 2000 to 10000
20 | CC(C)C[C@H](NC(=O)[C@H](CCCNC(=N)N[N+](=O)[O-])NC(=O)CCCOc1ccccc1)B(O)O [E.2.42, Boronic acid, [(1R)-1-[[(2S)-5-[[imino(nitroamino)methyl]amino]-2-[(4-phenoxybutanoyl)amino]-1-oxopentyl]amino]-3-methylbutyl]] | < 10 | > 10000
